Results on one compound are retold here after US8614203B2, “Methods for the treatment of a central nervous system injury via a tapered administration protocol” (Emory University, priority 2005, dated 2013).

Each structure is given as a SMILES string.

One data set has as its system HSP70. As to the kind of experiment: Example 3: Western blot of brain tissue, HSP70. The data set is classed as in vivo, Sprague-Dawley rats. The note with it: TWI vs AWI vs VI, 3 weeks post-injury. The procedure:
Male Sprague-Dawley rats received either medial frontal cortex injury or sham surgery. Injections were given 1 and 6 hours post-injury, and every 24 hours for 7 days. Treatment groups (n=8) encompassed injured (I) and sham (S) acute withdrawal (AW), tapered withdrawal (TW) and vehicle (V) treatments. TW injections were progressively halved over the final two treatments. Behavioral testing was conducted post-surgery, mid- and post-withdrawal. Activity boxes were used to investigate vertical movements and exploration: Sensory neglect and anxiety behaviors were also analyzed. Brain harvesting was performed at 8 days or 3 weeks post-injury. Perfused tissue sections were analyzed for lesion volume and immunohistochemical response. Fresh brain tissue was flash frozen in chilled 2-methyl butane, and then homogenized for Western blot analysis.

Data set [1] has as its system medial frontal cortex (MFC) injury or sham. Briefly: Example 4: Digiscan locomotor activity boxes (center time). In kind it is in vivo, Sprague-Dawley rats. An excerpt: (§1) 60 male Sprague-Dawley rats weighing 290-310 g at the time of injury were used in this experiment. Food and water were provided ad libidum before and after surgery. Animals were handled and weighed daily from their arrival, seven days pre-surgery, to brain extraction three weeks post-surgery. Animals were handled in squads of 12, with n=10 per experimental condition. All animal procedures were approved by the Emory University Animal Care and Use Committee, Protocol #131-2002.
(§2) Isofluorane anesthesia was induced for four minutes and 45 seconds at 5% and maintained at 2.5%. Normal body temperature was maintained with a surgical heating pad placed beneath the sterile dressings. The scalp incision area was shaved and sterilized with iodine and isopropanol. A midline incision was made along the scalp and the fascia cleared to expose the surface of the skull. Medial, lateral, and dorsal stereotaxic coordinates were determined at bregma, and a 5-7 mm diameter bilateral craniotomy was performed mid-sagitally, 3 mm anterior to bregma. […] Sutures were used to close the incision after bleeding ceased. Animals were placed in individual heated, clean recovery cages until they awakened, and were returned to clean individual home cages with accessible moistened food pellets. Sham animals were anesthetized, and an incision was made at the top of the head. The fascia was cleared to expose bregma, then the incision was sutured closed. Sham surgeries were matched to lesion surgeries for all experimental conditions.
(§3) Sham (S) and lesion (L) animals were randomly assigned to one of three treatment groups: vehicle (VS, VL), acute withdrawal (AWS, AWL), and tapered withdrawal (TWS, TWL). […] Tapering was induced as halved dosages over the last two days of treatment. Dilutions for TW treatments were made with HBC stock. All injections were administered intraperitoneally at one hour post-injury, and subcutaneously at six hours post-injury and every 24 hours through the end of the treatment cycle. Five sets of 12 animals each were used, for a total n=10 for each experimental group over the entire experiment. Of these animals, all were used to acquire behavioral data, four samples were used for protein analysis, and six samples were used for histological analysis for each test condition.
Random order, blinded testing occurred under red light in a quiet environment one day before injury, and one and seven days post-withdrawal. Up to four animals were tested using the Digiscan Activity Monitoring System (AccuScan Instruments, inc. Columbus, Ohio) in each trial, with a total of three trials per test day. Rats were placed in the furthest left corner of the Digiscan Activity Box. At that time, the toggle switch was flipped to ‘on’. At exactly five minutes the computer ceased testing, assuring that all tests were the same length regardless of start time. Files were saved according to date and trial number, and the number of fecal boli recorded. Activity boxes were cleaned with 70% ethanol and dried between trials. Center time was defined by the computer as the amount of time the animal spent exploring the activity box away from the corners.
All results were expressed as the mean plus or minus the standard error of the mean. Statistical significance was set at p<0.05 for two-tailed tests, and data were analyzed using one-way analysis of variance (ANOVA) followed by LSD post hoc tests. […]

Data set [2] shares this test system. Briefly: Example 4: somatosensory neglect of the forepaws. The data set is classed as in vivo, Sprague-Dawley rats.
Text: as §1, §2, §3
Random order, blinded testing occurred under red light in a quiet environment at one and seven days post-withdrawal, one hour after locomoter activity testing. 1.3 cm diameter circular labels were placed on the left forepaw and the rat placed in the clear plexiglass testing box. The latency required for each rat to remove the sticker with its mouth was recorded, with maximum test duration of two minutes. Each animal was tested three times, with a rest period of two minutes between trials. The testing box was cleaned with 70% ethanol and dried between trials.
All results were expressed as the mean plus or minus the standard error of the mean. Statistical significance was set at p<0.05 for two-tailed tests, and data were analyzed using one-way analysis of variance (ANOVA) followed by LSD post hoc tests. F-values are presented as a preface to post-hoc analysis with all degrees of freedom for Western blotting at (5,18) and for behavior at (5,26).

Another data set deals with contusion injury. The note with it: following a contusion injury (Roof et al. 1994); cited from earlier work.

Consider `CC(=O)[C@H]1CC[C@H]2[C@@H]3CCC4=CC(=O)CC[C@]4(C)[C@H]3CC[C@]12C` [progesterone, pregn-4-ene-3,20-dione], for which the HSP70 expression result in the data set with HSP70 is recorded as “increased for TWI over AWI over VI at 3 weeks post-injury”. The center time entry in data set [1] (acute withdrawal, lesion (AWL), one and seven days post-withdrawal) is on record as “increased center time compared to VL animals”; in data set [1] (acute withdrawal, sham (AWS), one day post-withdrawal), “significantly less center time compared to other shams”; in data set [1] (sham groups (AWS, TWS, VS), seven days post-withdrawal) it was “all sham animals spent equivalent center time”; in data set [1] (tapered withdrawal, lesion (TWL), one and seven days post-withdrawal) it was “increased center time over AWL animals”; in data set [1] (tapered withdrawal, sham (TWS), one day post-withdrawal) it was “increased center time at one day compared to VS animals”. Also, the “somatosensory neglect (latency to remove sticker)” value in data set [2] (16 mg/kg in […] HBC, tapered withdrawal, lesion (TWL), one day and one week post-withdrawal) is “deficiencies were decreased compared to VL and AWL”; in data set [2] (16 mg/kg, acute withdrawal, lesion (AWL), one day and one week post-withdrawal) it was “AWL and VL did not display differences”; in data set [2] (16 mg/kg, acute withdrawal, sham (AWS), one day post-withdrawal), “elevated sensory deficiencies compared to the TWS and VS groups”; in data set [2] (16 mg/kg, acute withdrawal, sham (AWS), one week post-withdrawal), “these differences were no longer evident”; in data set [2] (tapered withdrawal, sham (TWS), one day and one week post-withdrawal) it was “TWS and VS showed no differences”. In addition, the “post injury cerebral edema” value in the data set on contusion injury is “reduces the severity of post injury cerebral edema”.
